# According to patent US9988375B2, “Inhibitors of lysine gingipain” (priority 2014, dated 2018):
# pIC50: −log10 of the molar value.
# Biological target: lysine gingipain (Kgp) (Porphyromonas gingivalis (strain ATCC 33277 / DSM 20709 / CIP 103683 / JCM 12257 / NCTC 11834 / 2561), UniProt B2RLK2)
# Test: Lysine gingipain (Kgp) fluorogenic inhibition assay
# Assay type: biochemical
# Conditions: 0.1 nM Kgp, 10 uM Z-His-Glu-Lys-MCA, 90 minutes, 37° C., pH 7.5; read-out: Kgp IC50 average
# Protocol: The capacities of compounds of the present invention to inhibit the activity of lysine gingipain were measured in a fluorogenic assay similar to those described in Barret Biochemical Journal. 1980, 187(3), 909. The specific assay conditions were as follows. Buffer: pH=7.5, 100 mM Tris-HCl, 75 mM NaCl, 2.5 mM CaCl2, 10 mM cysteine, 1% DMSO after all additions. Protein: 0.1 nM Kgp, isolated from culture of Porphyromonas gingivalis, as described in Pike et al. J. Biol. Chem. 1994, 269(1), 406, and Potempa and Nguyen. Current Protocols in Protein Scienc. 2007, 21.20.1-21.20.27. Fluorogenic substrate: 10 uM Z-His-Glu-Lys-MCA. Time=90 minutes. Temperature=37° C. Each compound: 10 concentrations, starting at either 100 uM or 100 nM, with lower concentrations generated by serial 3-fold dilutions. By testing a range of concentrations for each compound, the concentration required to inhibit the activity of lysine gingipain by 50% (the “IC50”) was determined. Under the described assay conditions, signal-to-noise was excellent, and Z factor was greater than 0.6.
# The inhibitory of activity of compounds described herein was tested against Kgp, RgpB, and trypsin.
row,SMILES,pIC50
1,"NCCCC[C@H](NC(=O)c1ccccc1C(F)(F)F)C(=O)c1nc2ccccc2s1 [Compound 7, N-[(1S)-5-amino-1-(1,3-benzothiazole-2-carbonyl)pentyl]-2-(trifluoromethyl)benzamide]",7.30 to 7.60
2,"NCCCC[C@H](NC(=O)C1CCCC1)C(=O)c1nc2ccccc2s1 [Compound 24, N-[(1S)-5-amino-1-(1,3-benzothiazole-2-carbonyl)pentyl]cyclo-pentanecarboxamide]",8.00 to 9.00
3,"COC1(C(=O)N[C@@H](CCCCN)C(=O)c2nc3ccccc3s2)CCCCC1 [Compound 41, (S)—N-(6-amino-1-(benzo[d]thiazol-2-yl)-1-oxohexan-2-yl)-1-methoxycyclohexanecarboxamide]",7.60 to 8.00
4,"NCCCC[C@H](NC(=O)C1CCCO1)C(=O)c1nc2ccccc2s1 (single isomer, unassigned) [Compound 34]",8.00 to 9.00
5,"CC(=O)N1CCC[C@@H](C(=O)N[C@H](CCCCN)C(=O)c2nc3ccccc3s2)C1 [Compound 11, (3R)-1-acetyl-N-[(1R)-5-amino-1-(1,3-benzothiazole-2-carbonyl)pentyl]piperidine-3-carboxamide]",8.00 to 9.00
6,"NCCCCC(NC(=O)[C@@H]1CCCN(C(=O)CCc2ccccc2)C1)C(=O)c1nc2ccccc2s1 (single isomer, unassigned) [Compound 14]",8.00 to 9.00
7,"NCCCC[C@H](NC(=O)c1ccncc1)C(=O)c1nc2ccccc2s1 [Compound 13, N-[(1S)-5-amino-1-(1,3-benzothiazole-2-carbonyl)pentyl]pyridine-4-carboxamide]",7.30 to 7.60
8,"CC1(C(=O)N[C@@H](CCCCN)C(=O)c2nc3ccccc3s2)CCCCC1 [Compound 33, N-[(1S)-5-amino-1-(1,3-benzothiazole-2-carbonyl)pentyl]-1-methyl-cyclohexanecarboxamide]",8.00 to 9.00
9,"NCCCC[C@H](NC(=O)C1CCCCO1)C(=O)c1nc2ccccc2s1 (single isomer, unassigned) [Compound 26]",7.30 to 7.60
10,"NCCCC[C@H](NC(=O)C1CCCC1)C(=O)c1nccs1 [Compound 42, N-[(1S)-5-amino-1-(thiazole-2-carbonyl)pentyl]cyclopentanecarboxamide]",7.00 to 7.30
11,"NCCCCC(NC(=O)[C@@H]1CCCN(C(=O)CCc2ccccc2)C1)C(=O)c1nc2ccccc2s1 (single isomer, unassigned) [Compound 15]",8.00 to 9.00
12,"NCCCC[C@H](NC(=O)OCc1ccccc1)C(=O)c1nc2ccccc2s1 [Compound 23, Benzyl-N-[(1S)-5-amino-1-(1,3-benzothiazole-2-carbonyl)pentyl]carbamate]",6.60 to 7.00
13,"NCCCC[C@H](NC(=O)C1CCCCO1)C(=O)c1nc2ccccc2s1 (single isomer, unassigned) [Compound 25]",7.30 to 7.60
14,"NCCCC[C@H](NC(=O)C1CCCc2ccccc21)C(=O)c1nc2ccccc2s1 (stereo partly drawn) [Compound 31, N-[(1S)-5-amino-1-(1,3-benzothiazole-2-carbonyl)pentyl]tetralin-1-carboxamide]",7.60 to 8.00
15,"NCCCC[C@H](NC(=O)C1CCCOC1)C(=O)c1nc2ccccc2s1 (single isomer, unassigned) [Compound 19]",7.60 to 8.00
16,"NCCCC[C@H](NC(=O)c1cccnc1)C(=O)c1nc2ccccc2s1 [Compound 30, N-[(1S)-5-amino-1-(1,3-benzothiazole-2-carbonyl)pentyl]pyridine-3-carboxamide]",7.30 to 7.60
17,"NCCCC[C@H](NC(=O)C1CCOCC1)C(=O)c1nc2ccccc2s1 [Compound 22, N-[(1S)-5-amino-1-(1,3-benzothiazole-2-carbonyl)pentyl]tetrahydropyran-4-carboxamide]",7.60 to 8.00
18,"NCCCC[C@H](NC(=O)C1CCCOC1)C(=O)c1nc2ccccc2s1 (single isomer, unassigned) [Compound 18]",7.60 to 8.00
19,"NCCCC[C@H](NC(=O)c1nccs1)C(=O)c1nc2ccccc2s1 [Compound 39, N-[(1S)-5-amino-1-(1,3-benzothiazole-2-carbonyl)pentyl]thiazole-2-carboxamide]",7.00 to 7.30
